Data taken from patent US7777077B2, “Dual-acting antihypertensive agents” (Theravance, Inc., priority 2007, dated 2010).

Experiments:
human AT1 receptor = target: T1, human AT1 receptor (Homo sapiens, UniProt P30556); experiment: AT1 radioligand binding assay; settings: [Eu]AngII displacement, membranes of CHO-K1 cells expressing human AT1; read-out: pKi at the AT1 receptor (converted)
T1 construct: expressed in transfected cells; membranes
T1 sequence (P30556 1-359): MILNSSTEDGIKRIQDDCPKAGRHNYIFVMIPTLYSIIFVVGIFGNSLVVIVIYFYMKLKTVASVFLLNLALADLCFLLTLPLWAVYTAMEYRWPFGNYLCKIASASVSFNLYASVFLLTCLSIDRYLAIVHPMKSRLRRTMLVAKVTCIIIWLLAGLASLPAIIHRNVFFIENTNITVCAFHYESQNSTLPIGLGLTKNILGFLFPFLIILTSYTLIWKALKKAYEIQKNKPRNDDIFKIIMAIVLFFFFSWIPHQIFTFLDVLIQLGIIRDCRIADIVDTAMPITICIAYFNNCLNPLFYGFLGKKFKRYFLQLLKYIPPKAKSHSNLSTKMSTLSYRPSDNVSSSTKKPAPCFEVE
Experimental: These in vitro assays were used to assess the ability of test compounds to bind to the AT1 and the AT2 receptors.
Chinese hamster ovary (CHO-K1) derived cell lines stably expressing the cloned human AT1 or AT2 receptors, respectively, were grown in HAM's-F12 medium supplemented with 10% fetal bovine serum, 10 μg/ml penicillin/streptomycin, and 500 μg/ml geneticin in a 5% CO2 humidified incubator at 37° C. AT2 receptor expressing cells were grown in the additional presence of 100 nM PD123,319 (AT2 antagonist). When cultures reached 80-95% confluence, the cells were washed thoroughly in PBS and lifted with 5 mM EDTA. Cells were pelleted by centrifugation and snap frozen in MeOH-dry ice and stored at −80° C. until further use.
For membrane preparation, cell pellets were resuspended in lysis buffer (25 mM Tris/HCl pH 7.5 at 4° C., 1 mM EDTA, and one tablet of Complete Protease Inhibitor Cocktail Tablets with 2 mM EDTA per 50 mL buffer (Roche cat.#1697498, Roche Molecular Biochemicals, Indianapolis, Ind.)) and homogenized using a tight-fitting Dounce glass homogenizer (10 strokes) on ice. The homogenate was centrifuged at 1000×g, the supernatant was collected and centrifuged at 20,000×g. […] Protein concentration of the membrane suspension was determined by the method described in Bradford (1976) Anal Biochem. 72:248-54. […]

NEP enzyme = NEP enzyme (UniProt P08473); experiment: In vitro NEP enzyme inhibition assay; type: biochemical; settings: fluorogenic peptide substrate; human or rat NEP not given
Experimental: The inhibitory activities of compounds at human and rat NEP and human ACE were determined using in vitro assays as described below.
Rat NEP was prepared from the kidneys of adult Sprague Dawley rats. Whole kidneys were washed in cold PBS and brought up in ice-cold lysis buffer (1% Triton X-114, 150 mM NaCl, 50 mM Tris pH 7.5; Bordier (1981) J. Biol. Chem. 256:1604-1607) in a ratio of 5 mL of buffer for every gram of kidney. Samples were homogenized using a polytron hand held tissue grinder on ice. Homogenates were centrifuged at 1000×g in a swinging bucket rotor for 5 minutes at 3° C. The pellet was resuspended in 20 mL of ice cold lysis buffer and incubated on ice for 30 minutes. […] Protein concentrations were quantitated using a BCA detection system with BSA as a standard. […]
The assays were performed in 384-well white opaque plates at room temperature using the respective fluorogenic peptides at a concentration of 10 μM in assay buffer (50 mM Tris/HCl at 25° C., 100 mM NaCl, 0.01% Tween-20, 1 μM Zn, 0.025% BSA). […] The rat NEP enzyme preparation was used at a concentration that yielded quantitative proteolysis of 3 μM of Mca-RRL within 20 minutes at room temperature.
Assays were started by adding 25 μL of enzyme to 12.5 μL of test compound at 12 concentrations ([…]). […] Plates were read on a fluorometer with excitation and emission wavelengths set to 320 nm and 405 nm, respectively. […]

Ki (human AT1 receptor): < 100 nM | pIC50 for the NEP enzyme (NEP enzyme): greater than or equal to 7.0
SMILES: CCCC(=O)N(CCNC(=O)C(CS)CC(C)C)Cc1ccc(-c2ccccc2-c2nnn[nH]2)cc1 (centres unmarked) [Example 1, 2-Mercaptomethyl-4-methylpentanoic Acid (2-Butyryl-[2′-(1H-tetrazol-5-yl)biphenyl-4-ylmethyl]aminoethyl)amide]
